Source: patent publication US20260265238A1, “COMPOUNDS AND PHARMACEUTICAL COMPOSITIONS THAT DEGRADE SWI/SNF-RELATED MATRIX-ASSOCIATED ACTIN-DEPENDENT REGULATOR OF CHROMATIN SUBFAMILY A” (Plexium, Inc., priority 2023, published 2026)

Key:
[1] = target: T1, SMARCA2-HiBiT HeLa cells (protein which is expressed from the SMARCA2 gene) (Homo sapiens, UniProt P51531); experiment: SMARCA2 degradation assay (HiBiT-fusion HeLa cell line, 24 h, luminescence); assay type: cell-based
T1 construct: protein which is expressed from the SMARCA2 and SMARCA4 genes; host or cells: HeLa (SMARCA2-HiBiT engineered line)
Summary of the method: (§1)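 HeLa cells carrying HiBiT-tagged SMARCA2 or SMARCA4 were seeded at 8,000 cells/well, allowed to attach overnight at 37° C., then given compounds in a 10-point dilution series (typically 10 μM to 300 pM) for 24 hours at 37° C. Remaining tagged protein was read by HiBiT lytic luminescence, and DC50s came from dose-response curves.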

[2] = target: T2, SMARCA4-HiBiT HeLa cells (protein which is expressed from the SMARCA4 gene) (Homo sapiens, UniProt P51532); experiment: SMARCA4 degradation assay (HiBiT-fusion HeLa cell line, 24 h, luminescence); assay type: cell-based
T2 construct: protein which is expressed from the SMARCA2 and SMARCA4 genes; host or cells: HeLa (SMARCA4-HiBiT engineered line)
Summary of the method: as §1

T2 sequence (P51532 whole entry, the tested form may be a part): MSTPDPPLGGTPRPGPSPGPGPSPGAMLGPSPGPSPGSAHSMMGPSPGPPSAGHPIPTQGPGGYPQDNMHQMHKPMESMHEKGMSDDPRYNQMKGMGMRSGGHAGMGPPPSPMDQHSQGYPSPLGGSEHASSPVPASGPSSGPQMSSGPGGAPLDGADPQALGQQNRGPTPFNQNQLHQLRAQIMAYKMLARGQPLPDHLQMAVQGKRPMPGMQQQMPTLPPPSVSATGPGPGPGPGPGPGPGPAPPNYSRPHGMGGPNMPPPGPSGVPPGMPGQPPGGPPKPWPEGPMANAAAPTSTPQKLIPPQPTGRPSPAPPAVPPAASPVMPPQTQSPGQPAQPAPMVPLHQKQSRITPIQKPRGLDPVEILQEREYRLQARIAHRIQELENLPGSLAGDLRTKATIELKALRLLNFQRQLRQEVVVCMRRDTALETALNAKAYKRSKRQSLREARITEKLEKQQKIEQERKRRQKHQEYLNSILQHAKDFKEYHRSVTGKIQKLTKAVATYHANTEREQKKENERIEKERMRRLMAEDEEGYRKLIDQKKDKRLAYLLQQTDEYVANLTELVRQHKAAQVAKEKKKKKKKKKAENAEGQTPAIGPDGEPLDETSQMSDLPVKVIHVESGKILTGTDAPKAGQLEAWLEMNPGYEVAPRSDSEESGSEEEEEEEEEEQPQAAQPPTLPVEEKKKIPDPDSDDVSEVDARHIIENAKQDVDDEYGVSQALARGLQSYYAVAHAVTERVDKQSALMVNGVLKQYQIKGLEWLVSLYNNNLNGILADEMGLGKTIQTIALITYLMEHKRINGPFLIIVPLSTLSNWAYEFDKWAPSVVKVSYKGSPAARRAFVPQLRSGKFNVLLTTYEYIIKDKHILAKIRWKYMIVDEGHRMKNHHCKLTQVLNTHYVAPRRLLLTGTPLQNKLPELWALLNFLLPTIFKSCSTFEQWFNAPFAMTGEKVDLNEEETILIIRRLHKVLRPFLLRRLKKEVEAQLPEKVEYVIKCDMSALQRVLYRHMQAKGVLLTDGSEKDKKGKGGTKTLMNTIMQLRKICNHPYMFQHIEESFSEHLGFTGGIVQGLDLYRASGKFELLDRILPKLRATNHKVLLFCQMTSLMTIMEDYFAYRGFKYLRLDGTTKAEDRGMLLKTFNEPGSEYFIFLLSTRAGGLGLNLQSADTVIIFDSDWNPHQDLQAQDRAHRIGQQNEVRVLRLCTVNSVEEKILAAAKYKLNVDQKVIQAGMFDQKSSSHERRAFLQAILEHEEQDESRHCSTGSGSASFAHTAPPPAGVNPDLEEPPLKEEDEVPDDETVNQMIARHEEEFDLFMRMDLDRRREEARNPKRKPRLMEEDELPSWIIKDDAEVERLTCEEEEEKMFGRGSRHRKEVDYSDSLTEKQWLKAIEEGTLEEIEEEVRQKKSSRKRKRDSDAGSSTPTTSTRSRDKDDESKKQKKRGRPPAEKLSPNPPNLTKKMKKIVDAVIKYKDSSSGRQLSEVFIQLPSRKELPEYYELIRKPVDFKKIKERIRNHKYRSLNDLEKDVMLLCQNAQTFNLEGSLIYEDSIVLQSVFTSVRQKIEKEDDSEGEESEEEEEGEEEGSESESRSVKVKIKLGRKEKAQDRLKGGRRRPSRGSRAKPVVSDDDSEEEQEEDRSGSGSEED
T1 sequence (P51531 whole entry, the tested form may be a part): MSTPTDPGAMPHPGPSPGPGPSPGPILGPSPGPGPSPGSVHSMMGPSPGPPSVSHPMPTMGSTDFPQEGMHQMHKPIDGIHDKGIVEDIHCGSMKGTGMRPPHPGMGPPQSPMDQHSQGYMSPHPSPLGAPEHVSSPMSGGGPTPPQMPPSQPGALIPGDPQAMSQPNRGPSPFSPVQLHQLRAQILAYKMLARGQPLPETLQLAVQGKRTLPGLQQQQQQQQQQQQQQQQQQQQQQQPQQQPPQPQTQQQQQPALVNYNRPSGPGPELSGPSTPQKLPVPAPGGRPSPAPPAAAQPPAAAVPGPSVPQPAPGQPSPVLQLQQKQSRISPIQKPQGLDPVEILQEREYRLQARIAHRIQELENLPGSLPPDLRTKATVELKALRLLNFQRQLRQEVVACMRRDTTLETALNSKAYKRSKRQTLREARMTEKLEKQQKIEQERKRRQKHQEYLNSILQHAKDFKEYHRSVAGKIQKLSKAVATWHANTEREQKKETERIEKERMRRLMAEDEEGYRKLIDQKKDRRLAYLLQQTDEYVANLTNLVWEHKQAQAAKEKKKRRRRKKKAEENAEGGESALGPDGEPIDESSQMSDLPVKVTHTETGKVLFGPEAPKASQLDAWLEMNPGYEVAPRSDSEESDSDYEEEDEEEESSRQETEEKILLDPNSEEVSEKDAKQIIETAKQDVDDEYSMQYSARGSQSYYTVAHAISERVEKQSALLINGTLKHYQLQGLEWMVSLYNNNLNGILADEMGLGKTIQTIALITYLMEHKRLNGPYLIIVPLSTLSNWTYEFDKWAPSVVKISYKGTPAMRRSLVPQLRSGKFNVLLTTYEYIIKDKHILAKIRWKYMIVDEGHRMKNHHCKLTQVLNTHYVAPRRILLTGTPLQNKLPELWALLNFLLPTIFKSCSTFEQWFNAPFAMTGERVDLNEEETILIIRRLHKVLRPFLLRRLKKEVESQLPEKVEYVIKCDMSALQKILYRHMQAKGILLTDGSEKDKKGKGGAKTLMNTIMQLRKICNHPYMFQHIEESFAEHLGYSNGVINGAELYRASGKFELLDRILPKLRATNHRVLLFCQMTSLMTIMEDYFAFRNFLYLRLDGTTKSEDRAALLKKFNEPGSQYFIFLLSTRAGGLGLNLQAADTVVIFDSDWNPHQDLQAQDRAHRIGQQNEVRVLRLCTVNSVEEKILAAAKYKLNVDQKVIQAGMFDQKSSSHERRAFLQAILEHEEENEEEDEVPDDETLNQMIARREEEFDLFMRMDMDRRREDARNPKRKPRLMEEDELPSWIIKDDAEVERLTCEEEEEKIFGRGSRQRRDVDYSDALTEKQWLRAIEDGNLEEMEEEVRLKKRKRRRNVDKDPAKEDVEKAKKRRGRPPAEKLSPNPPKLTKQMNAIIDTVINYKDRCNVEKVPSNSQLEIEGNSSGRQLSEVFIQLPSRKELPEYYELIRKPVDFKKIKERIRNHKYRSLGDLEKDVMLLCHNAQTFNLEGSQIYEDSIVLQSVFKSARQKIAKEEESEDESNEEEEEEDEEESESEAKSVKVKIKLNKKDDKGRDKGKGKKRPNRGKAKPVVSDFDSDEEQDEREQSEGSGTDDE

Row | Compound | DC50 [1] [nM] | SMARCA2 % Degradation @ 1 μM ([1]; @ 1 μM) | DC50 [2] [nM] | inhibition at 1 µM [2] [%] | SMARCA2 % Degradation @ 1 μM ([1]; 1 μM)
1 | Nc1nnc(-c2ccccc2O)cc1N1CCCN(c2ccnc(C#CCN3CC4CCC(C3)O4)n2)CC1 [Compound P-315, 0-{6-amino-5-[4-(2-{3-(8-oxa-3-azabicyclo[3.2.1]oct-3-yl)-1-propynyl}-4-pyrimidinyl)-1,4-diazepan-1-yl]-3-pyridazinyl} phenol] | 50 to 500 | ++ (++=30-70%) | 500 to 5000 | 30 to 70 | –
2 | CC[C@H](C)NCC#Cc1nccc(N2CCCN(c3cc(-c4ccccc4O)nnc3N)CC2)n1 [Compound P-257, o-{5-[4-(2-{3-[(S)-1-methylpropylamino]-1-propynyl}-4-pyrimidinyl)-1,4-diazepan-1-yl]-6-amino-3-pyridazinyl}phenol] | 50 to 500 | +++ (+++=>70%) | 50 to 500 | 30 to 70 | –
3 | C[C@H]1CCN(c2cc(-c3ccccc3O)nnc2N)CCN1c1ccnc(C#CCN(C)C)n1 [Compound P-250] | < 50 | +++ (+++=>70%) | < 50 | > 70 | –
4 | C[C@@H]1CCN(c2cc(-c3ccccc3O)nnc2N)CCN1c1ccnc(/C=C/CN(C)C)n1 [Compound P-218, o-{5-[(R)-4-{2-[(E)-3-(dimethylamino)-1-propenyl]-4-pyrimidinyl}-5-methyl-1,4-diazepan-1-yl]-6-amino-3-pyridazinyl}phenol] | 50 to 500 | +++ (+++=>70%) | 50 to 500 | 30 to 70 | –
5 | Nc1nnc(-c2ccccc2O)cc1N1CCCN(c2ccnc(C#CCN3C[C@@H]4C[C@H]3CO4)n2)CC1 [Compound P-377, 0-(5-{4-[2-(3-{(1S,4S)-2-oxa-5-azabicyclo[2.2.1]hept-5-yl}-1-propynyl)-4-pyrimidinyl]-1,4-diazepan-1-y1}-6-amino-3-pyridazinyl)phenol] | 50 to 500 | ++ (++=30-70%) | 500 to 5000 | 30 to 70 | –
6 | Cn1nccc1OCC#Cc1nccc(N2CCCN(c3cc(-c4ccccc4O)nnc3N)CC2)n1 [Compound P-131, 2-(6-amino-5-(4-(2-(3-((1-methyl-1H-pyrazol-5-yl)oxy)prop-1-yn-1-yl)pyrimidin-4-yl)-1,4-diazepan-1-yl)pyridazin-3-yl)phenol] | 50 to 500 | ++ (++=30-70%) | 50 to 500 | 30 to 70 | –
7 | CC(C#Cc1nccc(N2CCN(c3cc(-c4ccccc4O)nnc3N)CC2)n1)NC(=O)c1cc2ncccn2n1 (centres unmarked) [Compound P-95, N-(4-(4-(4-(3-amino-6-(2-hydroxyphenyl)pyridazin-4-yl)piperazin-1-yl)pyrimidin-2-yl)but-3-yn-2-yl)pyrazolo[1,5-a]pyrimidine-2-carboxamide] | 50 to 500 | + (+=<30%) | < 50 | 30 to 70 | –
8 | Nc1nnc(-c2ccccc2O)cc1N1CCN(c2ccnc(C#CCNC(=O)c3ccn(C4CC4)n3)n2)CC1 [Compound P-11, N-[3-(4-{4-[3-amino-6-(2-hydroxyphenyl)pyridazin-4-yl]piperazin-1-yl}pyrimidin-2-yl)prop-2-yn-1-y1]-1-cyclopropyl-1H-pyrazole-3-carboxamide] | < 50 | ++ (++=30-70%) | < 50 | 30 to 70 | –
9 | Cc1ncsc1C(=O)NCC#Cc1nccc(N2CCN(c3cc(-c4ccccc4O)nnc3N)CC2)n1 [Compound P-62, N-(3-(4-(4-(3-amino-6-(2-hydroxyphenyl)pyridazin-4-yl)piperazin-1-yl)pyrimidin-2-yl)prop-2-yn-1-yl)-4-methylthiazole-5-carboxamide] | 50 to 500 | ++ (++=30-70%) | 50 to 500 | 30 to 70 | –
10 | COC[C@@H](C)NCC#Cc1nccc(N2CCCN(c3cc(-c4ccccc4O)nnc3N)CC2)n1 [Compound P-277, 0-{5-[4-(2-{3-[(R)-2-methoxy-1-methylethylamino]-1-propynyl}-4-pyrimidinyl)-1,4-diazepan-1-yl]-6-amino-3-pyridazinyl}phenol] | 50 to 500 | ++ (++=30-70%) | 50 to 500 | 30 to 70 | –
11 | C[C@@H]1CCN(c2cc(-c3ccccc3O)nnc2N)CCN1c1ccnc(C#CCn2cccc2)n1 [Compound P-191, o-{5-[(R)-5-methyl-4-{2-[3-(1-pyrrolyl)-1-propynyl]-4-pyrimidinyl}-1,4-diazepan-1-yl]-6-amino-3-pyridaziny1}phenol] | 50 to 500 | ++ (++=30-70%) | 50 to 500 | 30 to 70 | –
12 | Nc1nnc(-c2ccccc2O)cc1N1CC2CCC(C1)N2c1ccnc(C#CCNc2nc3ccccc3o2)n1 [Compound P-100, 2-(6-amino-5-(8-(2-(3-(benzo[d]doxazol-2-ylamino)prop-1-yn-1-yl)pyrimidin-4-yl)-3,8-diazabicyclo[3.2.1]octan-3-yl)pyridazin-3-yl)phenol] | 50 to 500 | +++ (+++=>70%) | 50 to 500 | 30 to 70 | –
13 | CC(C)(C)OC(=O)N1CCC(C#Cc2nccc(N3CCCN(c4cc(-c5ccccc5O)nnc4N)CC3)n2)CC1 [Compound P-351, tert-butyl 4-[2-(4-{4-[3-amino-6-(o-hydroxyphenyl)-4-pyridazinyl]-1,4-diazepan-1-yl}-2-pyrimidinyl)ethynyl]-1-piperidinecarboxylate] | 500 to 5000 | ++ (++=30-70%) | 500 to 5000 | 30 to 70 | –
14 | Nc1nnc(-c2ccccc2O)cc1N1CCN(c2ccnc(C#CCCCNC(=O)c3cc4ncccn4n3)n2)CC1 [Compound P-92, N-(5-(4-(4-(3-amino-6-(2-hydroxyphenyl)pyridazin-4-yl)piperazin-1-yl)pyrimidin-2-yl)pent-4-yn-1-yl)pyrazolo[1,5-a]pyrimidinc-2-carboxamidc] | 50 to 500 | + (+=<30%) | 50 to 500 | 30 to 70 | –
15 | Nc1nnc(-c2ccccc2O)cc1N1CC2CCN(c3ccnc(C#CCNC(=O)c4cc5ncccn5n4)n3)C2C1 (centres unmarked) [Compound P-36, N-(3-(4-(5-(3-amino-6-(2-hydroxyphenyl)pyridazin-4-yl)hexahydropyrrolo[3,4-b]pyrrol-1(2H)-yl)pyrimidin-2-yl)prop-2-yn-1-yl)pyrazolo[1,5-a]pyrimidine-2-carboxamide] | 50 to 500 | +++ (+++=>70%) | 50 to 500 | > 70 | –
16 | C[C@@H]1CCN(c2cc(-c3ccccc3O)nnc2N)CCN1c1ccnc(C#CC2CCCCN2C)n1 (stereo partly drawn) [Compound P-231, o-{5-[(R)-5-methyl-4-{2-[2-(1-methyl-2-piperidyl)ethynyl]-4-pyrimidinyl}-1,4-diazepan-1-yl]-6-amino-3-pyridaziny1} phenol] | < 50 | ++ (++=30-70%) | < 50 | 30 to 70 | –
17 | C[C@@H]1CCN(c2cc(-c3ccccc3O)nnc2N)CCN1c1ccnc(C#CCNC(=O)c2cccnc2)n1 [Compound P-240, N-[3-(4-{ (R)-4-[3-amino-6-(o-hydroxyphenyl)-4-pyridazinyl]-7-methyl-1,4-diazepan-1-yl}-2-pyrimidinyl)-2-propynyl]nicotinamide] | 500 to 5000 | ++ (++=30-70%) | 500 to 5000 | < 30 | –
18 | Cc1nn2ccn(CC#Cc3nccc(N4CCCN(c5cc(-c6ccccc6O)nnc5N)CC4)n3)c(=O)c2c1C [Compound P-115, 5-(3-(4-(4-(3-amino-6-(2-hydroxyphenyl)pyridazin-4-yl)-1,4-diazepan-1-yl)pyrimidin-2-yl)prop-2-yn-1-yl)-2,3-dimethylpyrazolo[1,5-a]pyrazin-4(5H)-one] | 50 to 500 | +++ (+++=>70%) | 50 to 500 | 30 to 70 | –
19 | C[C@@H]1CCN(c2cc(-c3ccccc3O)nnc2N)CCN1c1ccnc(C#CCN2[C@H](C)COC[C@@H]2C)c1 [Compound P-422, 0-{5-[(R)-4-(2-{3-[(3R,5S)-3,5-dimethyl-4-morpholiny1]-1-propynyl}-4-pyridyl)-5-methyl-1,4-diazepan-1-yl]-6-amino-3-pyridazinyl}phenol] | 50 to 500 | – | < 50 | – | + (+=<30%)
20 | CC(=O)NCC#Cc1nccc(N2CCN(c3cc(-c4ccccc4O)nnc3N)CC2)n1 [Compound P-68, N-(3-(4-(4-(3-amino-6-(2-hydroxyphenyl)pyridazin-4-yl)piperazin-1-yl)pyrimidin-2-yl)prop-2-yn-1-yl)acetamide] | 50 to 500 | + (+=<30%) | > 5000 | – | –
21 | Nc1nnc(-c2ccccc2O)cc1N1CCCN(c2ccnc(C#CC3CC3)n2)CC1 [Compound P-359, 0-(6-amino-5-{4-[2-(2-cyclopropylethynyl)-4-pyrimidinyl]-1,4-diazepan-1-yl}-3-pyridazinyl)phenol] | 50 to 500 | ++ (++=30-70%) | 50 to 500 | < 30 | –
22 | CC(C)(C)OC(=O)NCC#Cc1nccc(N2CCC3CCC(C2)N3c2cc(-c3ccccc3O)nnc2N)n1 (centres unmarked) [Compound P-267, 3-(4-{9-[3-amino-6-(o-hydroxyphenyl)-4-pyridaziny1]-3,9-diazabicyclo[4.2.1]non-3-yl}-2-pyrimidinyl)-2-propynylamino-tert-butylformylate] | 50 to 500 | +++ (+++=>70%) | 50 to 500 | 30 to 70 | –
